Experimental data: ChEMBL document CHEMBL5303573, “Mapping human microbiome drug metabolism by gut bacteria and their genes” (Nature, 2019)

Assays:
[1] = bacteroides thetaiotaomicron, 12 h, 2 µM
Description: The drug is tested on Bacteroides thetaiotaomicron strain: 7330 for biotransformation. The drug concentrations were measured before and after a 12-h incubation by liquid-chromatography-coupled mass spectrometry (LC–MS)

[2] = The drug is tested on Escherichia coli strain: BW25113 for biotransformation. The drug concentrations were measured before and after a 12-h incubation by liquid-chromatography-coupled mass spectrometry (LC–MS); details: 2 µM
[3] = The drug is tested on Eubacterium ventriosum strain: ATCC27560 for biotransformation. The drug concentrations were measured before and after a 12-h incubation by liquid-chromatography-coupled mass spectrometry (LC–MS); format: ADME; parameters: dose 2 uM, timepoint 0 vs 12 hours; details: 2 µM
[4] = bacteroides intestinalis, 12 h, 2 µM
Description: The drug is tested on Bacteroides intestinalis strain: DSM17393 for biotransformation. The drug concentrations were measured before and after a 12-h incubation by liquid-chromatography-coupled mass spectrometry (LC–MS)

[5] = bacteroides fragilis, 12 h, 2 µM
Description: The drug is tested on Bacteroides fragilis strain: 3397 (T10) for biotransformation. The drug concentrations were measured before and after a 12-h incubation by liquid-chromatography-coupled mass spectrometry (LC–MS)

[6] = The drug is tested on Bacteroides caccae strain: ATCC43185 for biotransformation. The drug concentrations were measured before and after a 12-h incubation by liquid-chromatography-coupled mass spectrometry (LC–MS); details: 2 µM
[7] = parabacteroides johnsonii, 12 h, 2 µM
Description: The drug is tested on Parabacteroides johnsonii strain: DSM18315 for biotransformation. The drug concentrations were measured before and after a 12-h incubation by liquid-chromatography-coupled mass spectrometry (LC–MS)

[8] = The drug is tested on Ruminococcus gnavus strain: ATCC29149 for biotransformation. The drug concentrations were measured before and after a 12-h incubation by liquid-chromatography-coupled mass spectrometry (LC–MS); details: mediterraneibacter gnavus, 2 µM
[9] = The drug is tested on Ruminococcus lactaris strain: ATCC29176 for biotransformation. The drug concentrations were measured before and after a 12-h incubation by liquid-chromatography-coupled mass spectrometry (LC–MS); details: 2 µM
[10] = The drug is tested on Alistipes indistinctus strain: DSM22520 for biotransformation. The drug concentrations were measured before and after a 12-h incubation by liquid-chromatography-coupled mass spectrometry (LC–MS); details: 2 µM
[11] = The drug is tested on Clostridium symbiosum strain: ATCC14940 for biotransformation. The drug concentrations were measured before and after a 12-h incubation by liquid-chromatography-coupled mass spectrometry (LC–MS); details: 2 µM
[12] = The drug is tested on Bacteroides pectinophilus strain: ATCC43243 for biotransformation. The drug concentrations were measured before and after a 12-h incubation by liquid-chromatography-coupled mass spectrometry (LC–MS); details: 2 µM
[13] = The drug is tested on Subdoligranulum variabile strain: DSM15176 for biotransformation. The drug concentrations were measured before and after a 12-h incubation by liquid-chromatography-coupled mass spectrometry (LC–MS); details: 2 µM
[14] = enterocloster bolteae, 12 h, 2 µM
Description: The drug is tested on Clostridium bolteae strain: ATCCBAA-613 for biotransformation. The drug concentrations were measured before and after a 12-h incubation by liquid-chromatography-coupled mass spectrometry (LC–MS)

[15] = The drug is tested on Coprococcus comes strain: ATCC27758 for biotransformation. The drug concentrations were measured before and after a 12-h incubation by liquid-chromatography-coupled mass spectrometry (LC–MS); format: ADME; parameters: dose 2 uM, timepoint 0 vs 12 hours; details: 2 µM
[16] = The drug is tested on Edwardsiella tarda strain: ATCC23685 for biotransformation. The drug concentrations were measured before and after a 12-h incubation by liquid-chromatography-coupled mass spectrometry (LC–MS); details: 2 µM
[17] = The drug is tested on Providencia rettgeri strain: DSM1131 for biotransformation. The drug concentrations were measured before and after a 12-h incubation by liquid-chromatography-coupled mass spectrometry (LC–MS); format: ADME; parameters: dose 2 uM, timepoint 0 vs 12 hours; details: 2 µM
[18] = The drug is tested on Bacteroides fragilis strain: ATCC43859 for biotransformation. The drug concentrations were measured before and after a 12-h incubation by liquid-chromatography-coupled mass spectrometry (LC–MS); details: 2 µM
[19] = The drug is tested on Clostridium ramosum strain: DSM1402 for biotransformation. The drug concentrations were measured before and after a 12-h incubation by liquid-chromatography-coupled mass spectrometry (LC–MS); details: thomasclavelia ramosa, 2 µM

| Structure (SMILES) | Bacterial Biotransformation [1] | Bacterial Biotransformation [2] | Bacterial Biotransformation [3] | Bacterial Biotransformation [4] | Bacterial Biotransformation [5] | Bacterial Biotransformation [6] | Bacterial Biotransformation [7] | Bacterial Biotransformation [8] | Bacterial Biotransformation [9] | Bacterial Biotransformation [10] | Bacterial Biotransformation [11] | Bacterial Biotransformation [12] | Bacterial Biotransformation [13] | Bacterial Biotransformation [14] | Bacterial Biotransformation [15] | Bacterial Biotransformation [16] | Bacterial Biotransformation [17] | Bacterial Biotransformation [18] | Bacterial Biotransformation [19] |
| --- | --- | --- | --- | --- | --- | --- | --- | --- | --- | --- | --- | --- | --- | --- | --- | --- | --- | --- | --- |
| CCN(CC)C(C)CN1c2ccccc2Sc2ccccc21 (stereo unspecified) [ETHOPROPAZINE] | Compound metabolized | Compound metabolized | Compound NOT metabolized | Compound metabolized | Compound NOT metabolized | Compound metabolized | Compound metabolized | Compound NOT metabolized | Compound NOT metabolized | Compound NOT metabolized | Compound NOT metabolized | Compound metabolized | Compound NOT metabolized | Compound NOT metabolized | Compound NOT metabolized |  |  |  |  |
| CC(C)c1c(CN(C)C(C)Cc2ccccc2)n(C)n(-c2ccccc2)c1=O (stereo unspecified) [FAMPROFAZONE] | Compound metabolized | Compound NOT metabolized | Compound NOT metabolized | Compound metabolized | Compound metabolized | Compound NOT metabolized | Compound metabolized | Compound NOT metabolized | Compound NOT metabolized | Compound NOT metabolized | Compound NOT metabolized | Compound NOT metabolized | Compound metabolized | Compound metabolized | Compound NOT metabolized | Compound metabolized | Compound NOT metabolized |  |  |
| COCCCC/C(=N\OCCN)c1ccc(C(F)(F)F)cc1.O=C(O)/C=C\C(=O)O [FLUVOXAMINE MALEATE] | Compound metabolized | Compound NOT metabolized | Compound NOT metabolized | Compound NOT metabolized | Compound metabolized | Compound NOT metabolized | Compound NOT metabolized | Compound NOT metabolized | Compound NOT metabolized | Compound NOT metabolized | Compound NOT metabolized | Compound metabolized | Compound NOT metabolized |  |  | Compound NOT metabolized | Compound NOT metabolized | Compound NOT metabolized |  |
| Cc1cc2c(s1)Nc1ccccc1N=C2N1CCN(C)CC1 [OLANZAPINE] | Compound NOT metabolized | Compound NOT metabolized | Compound NOT metabolized | Compound NOT metabolized | Compound metabolized | Compound NOT metabolized | Compound NOT metabolized | Compound NOT metabolized | Compound NOT metabolized | Compound NOT metabolized | Compound NOT metabolized | Compound NOT metabolized | Compound NOT metabolized | Compound NOT metabolized | Compound NOT metabolized | Compound NOT metabolized | Compound NOT metabolized |  | Compound NOT metabolized |
| Cc1ccccc1C(OCCN(C)C)c1ccccc1.O=C(O)CC(O)(CC(=O)O)C(=O)O (stereo unspecified) [ORPHENADRINE CITRATE] | Compound NOT metabolized |  |  | Compound NOT metabolized | Compound NOT metabolized | Compound NOT metabolized | Compound NOT metabolized | Compound NOT metabolized | Compound NOT metabolized | Compound NOT metabolized | Compound NOT metabolized | Compound NOT metabolized | Compound NOT metabolized |  | Compound NOT metabolized | Compound NOT metabolized | Compound NOT metabolized | Compound NOT metabolized |  |
